From US20160090556A1, “PRODUCTS COMPRISING MALODOR REDUCTION MATERIALS” (The Procter & Gamble Company, priority 2014, published 2016)
Like-named read-outs stand apart in the source and are kept apart here.

Assay: Liquid dish neat product liquid-air partition coefficient
Assay type: physicochemical
Conditions: for Comment Code: Log of liquid dish neat product liquid-air partition coefficient: code letters K, L
[1] = class code letter within Comment Code

## CC(C)=CCCC(C)c1ccc(C)cc1 (stereo not shown) [Material 713]
  Log of liquid dish neat product liquid-air partition coefficient (Comment Code K/L): K (Log of liquid dish neat product liquid-air partition coefficient greater than or equal to −7)

## C=CCCC(=O)C1CCCC(C)(C)C1 (stereo not shown) [Material 334]
[1]
  Log of liquid dish neat product liquid-air partition coefficient (Comment Code K/L): K (Log of liquid dish neat product liquid-air partition coefficient greater than or equal to −7)

## CCNC(=O)C1CC(C)CCC1C(C)C (stereo not shown) [Material 57]
[1]
  Log of liquid dish neat product liquid-air partition coefficient (Comment Code K/L): K (Log of liquid dish neat product liquid-air partition coefficient greater than or equal to −7)

## C=CC(C)(O)CCC=C(C)CCC=C(C)C (stereo not shown) [Material 63]
[1]
  Log of liquid dish neat product liquid-air partition coefficient (Comment Code K/L): K (Log of liquid dish neat product liquid-air partition coefficient greater than or equal to −7)

## CC12CCCC(O)(C1)C1CC(C)(C)C1CC2 (stereo not shown) [Material 574]
  Log of liquid dish neat product liquid-air partition coefficient (Comment Code K/L): K (Log of liquid dish neat product liquid-air partition coefficient greater than or equal to −7)
  Comment Code: Log of liquid dish neat product liquid-air partition coefficient: K (Log of liquid dish neat product liquid-air partition coefficient greater than or equal to −7)

## CC=Cc1ccc(OC)c(OC)c1 [Material 108]
[1]
  Log of liquid dish neat product liquid-air partition coefficient (Comment Code K/L): K (Log of liquid dish neat product liquid-air partition coefficient greater than or equal to −7)

## C=C[C@](C)(O)CCC=C(C)C [Material 888]
  Comment Code: Log of liquid dish neat product liquid-air partition coefficient: K (Log of liquid dish neat product liquid-air partition coefficient greater than or equal to −7)

## CC(C=O)Cc1cccc(C(C)(C)C)c1 (stereo not shown) [Material 134]
[1]
  Log of liquid dish neat product liquid-air partition coefficient (Comment Code K/L): K (Log of liquid dish neat product liquid-air partition coefficient greater than or equal to −7)

## Cc1ccc2c(c1)OCC(=O)CO2 [Material 17]
[1]
  Log of liquid dish neat product liquid-air partition coefficient (Comment Code K/L): K (Log of liquid dish neat product liquid-air partition coefficient greater than or equal to −7)

## O=C1CCCCCCCCCCCCCCCO1 [Material 277]
[1]
  Log of liquid dish neat product liquid-air partition coefficient (Comment Code K/L): K (Log of liquid dish neat product liquid-air partition coefficient greater than or equal to −7)

## CC(=O)C=CC12OC1(C)CCCC2(C)C (stereo not shown) [Material 636]
  Log of liquid dish neat product liquid-air partition coefficient (Comment Code K/L): K (Log of liquid dish neat product liquid-air partition coefficient greater than or equal to −7)

## COC1CC2CC1C1CC(C=O)CC21 (stereo not shown) [Material 1026]
  Log of liquid dish neat product liquid-air partition coefficient (Comment Code K/L): K (Log of liquid dish neat product liquid-air partition coefficient greater than or equal to −7)

## CCc1ccccc1CC(C)(C)C=O [Material 354]
  Comment Code: Log of liquid dish neat product liquid-air partition coefficient: K (Log of liquid dish neat product liquid-air partition coefficient greater than or equal to −7)

## C=C(C)[C@@H]1CCC2=CC(=O)C[C@@H](C)[C@]2(C)C1 [Material 48]
[1]
  Log of liquid dish neat product liquid-air partition coefficient (Comment Code K/L): K (Log of liquid dish neat product liquid-air partition coefficient greater than or equal to −7)
  Comment Code: Log of liquid dish neat product liquid-air partition coefficient: K (Log of liquid dish neat product liquid-air partition coefficient greater than or equal to −7)

## CCC=CCCC=CCO [Material 865]
  Log of liquid dish neat product liquid-air partition coefficient (Comment Code K/L): K (Log of liquid dish neat product liquid-air partition coefficient greater than or equal to −7)

## COC(C=C(C)CCC=C(C)C)OC [Material 520]
[1]
  Log of liquid dish neat product liquid-air partition coefficient (Comment Code K/L): K (Log of liquid dish neat product liquid-air partition coefficient greater than or equal to −7)

## CC=Cc1ccc(O)c(OC)c1 [Material 214]
  Comment Code: Log of liquid dish neat product liquid-air partition coefficient: K (Log of liquid dish neat product liquid-air partition coefficient greater than or equal to −7)

## C=C1CCCC(C)(C)C1C=C(C)C(C)=O (stereo not shown) [Material 913]
  Log of liquid dish neat product liquid-air partition coefficient (Comment Code K/L): K (Log of liquid dish neat product liquid-air partition coefficient greater than or equal to −7)

## C=C(C)C(=O)OCCc1ccccc1 [Material 971]
  Comment Code: Log of liquid dish neat product liquid-air partition coefficient: K (Log of liquid dish neat product liquid-air partition coefficient greater than or equal to −7)

## CC1CCC2C(C2(C)C)C12COC(C)(C)OC2 (stereo not shown) [Material 1036]
  Log of liquid dish neat product liquid-air partition coefficient (Comment Code K/L): K (Log of liquid dish neat product liquid-air partition coefficient greater than or equal to −7)

## CC(C)C1=CCC(C)(O)CC1 (stereo not shown) [Material 982]
  Log of liquid dish neat product liquid-air partition coefficient (Comment Code K/L): K (Log of liquid dish neat product liquid-air partition coefficient greater than or equal to −7)

## CC(=O)OC(C)c1ccccc1 (stereo not shown) [Material 1041]
  Comment Code: Log of liquid dish neat product liquid-air partition coefficient: K (Log of liquid dish neat product liquid-air partition coefficient greater than or equal to −7)

## CC=CC(=O)C1C(C)=CCCC1(C)C (stereo not shown) [Material 1074]
  Comment Code: Log of liquid dish neat product liquid-air partition coefficient: K (Log of liquid dish neat product liquid-air partition coefficient greater than or equal to −7)

## COC(=O)C=Cc1ccccc1 [Material 117]
[1]
  Log of liquid dish neat product liquid-air partition coefficient (Comment Code K/L): K (Log of liquid dish neat product liquid-air partition coefficient greater than or equal to −7)

## CC1=CCC(C23CCCC(C)(C2)OC3)C1(C)C (stereo not shown) [Material 570]
  Log of liquid dish neat product liquid-air partition coefficient (Comment Code K/L): K (Log of liquid dish neat product liquid-air partition coefficient greater than or equal to −7)
  Comment Code: Log of liquid dish neat product liquid-air partition coefficient: K (Log of liquid dish neat product liquid-air partition coefficient greater than or equal to −7)

## CC1/C=C/CCCCCCCCCCC(=O)C1 (stereo not shown) [Material 80]
[1]
  Log of liquid dish neat product liquid-air partition coefficient (Comment Code K/L): K (Log of liquid dish neat product liquid-air partition coefficient greater than or equal to −7)

## OCCc1ccccc1 [Material 955]
  Log of liquid dish neat product liquid-air partition coefficient (Comment Code K/L): K (Log of liquid dish neat product liquid-air partition coefficient greater than or equal to −7)

## Cc1cccc(CC(C)(C)CO)c1 [Material 140]
[1]
  Log of liquid dish neat product liquid-air partition coefficient (Comment Code K/L): K (Log of liquid dish neat product liquid-air partition coefficient greater than or equal to −7)

## CC(=O)[C@@]1(C)CC2=C(CCCC2(C)C)C[C@@H]1C [Material 215]
[1]
  Log of liquid dish neat product liquid-air partition coefficient (Comment Code K/L): K (Log of liquid dish neat product liquid-air partition coefficient greater than or equal to −7)
  Comment Code: Log of liquid dish neat product liquid-air partition coefficient: K (Log of liquid dish neat product liquid-air partition coefficient greater than or equal to −7)

## CC(O)C(C)Cc1ccccc1 (stereo not shown) [Material 82]
[1]
  Log of liquid dish neat product liquid-air partition coefficient (Comment Code K/L): K (Log of liquid dish neat product liquid-air partition coefficient greater than or equal to −7)

## CC/C(=C/CC1CC=C(C)C1(C)C)CO (stereo not shown) [Material 1024]
  Log of liquid dish neat product liquid-air partition coefficient (Comment Code K/L): K (Log of liquid dish neat product liquid-air partition coefficient greater than or equal to −7)
  Comment Code: Log of liquid dish neat product liquid-air partition coefficient: K (Log of liquid dish neat product liquid-air partition coefficient greater than or equal to −7)

## C=C(C)C1CCC2(C)CCC=C(C)C2C1 (stereo not shown) [Material 774]
  Log of liquid dish neat product liquid-air partition coefficient (Comment Code K/L): K (Log of liquid dish neat product liquid-air partition coefficient greater than or equal to −7)

## C=C(C)C1CC=C(C=O)CC1 (stereo not shown) [Material 946]
  Log of liquid dish neat product liquid-air partition coefficient (Comment Code K/L): K (Log of liquid dish neat product liquid-air partition coefficient greater than or equal to −7)

## CC(=O)OC1(C)CCC(=C(C)C)CC1 (stereo not shown) [Material 317]
[1]
  Log of liquid dish neat product liquid-air partition coefficient (Comment Code K/L): K (Log of liquid dish neat product liquid-air partition coefficient greater than or equal to −7)

## CC12CCCC(C)(CC1)C2=NO [Material 921]
  Comment Code: Log of liquid dish neat product liquid-air partition coefficient: K (Log of liquid dish neat product liquid-air partition coefficient greater than or equal to −7)

## CC1=CC[C@@H]2C3CC([C@@H]2C1)[C@@]1(C3)OC1C (stereo partly shown) [Material 1007]
  Log of liquid dish neat product liquid-air partition coefficient (Comment Code K/L): K (Log of liquid dish neat product liquid-air partition coefficient greater than or equal to −7)
  Comment Code: Log of liquid dish neat product liquid-air partition coefficient: K (Log of liquid dish neat product liquid-air partition coefficient greater than or equal to −7)

## C=C(C)C1CCC2(C)CCC=C(C)C2C1 (stereo not shown) [Material 692]
  Log of liquid dish neat product liquid-air partition coefficient (Comment Code K/L): K (Log of liquid dish neat product liquid-air partition coefficient greater than or equal to −7)

## CC(C)C1CCC(C(C)O)CC1 (stereo not shown) [Material 83]
[1]
  Log of liquid dish neat product liquid-air partition coefficient (Comment Code K/L): K (Log of liquid dish neat product liquid-air partition coefficient greater than or equal to −7)

## CCC(C)(O)CCc1ccccc1 (stereo not shown) [Material 731]
  Log of liquid dish neat product liquid-air partition coefficient (Comment Code K/L): K (Log of liquid dish neat product liquid-air partition coefficient greater than or equal to −7)

## CCCOC(C)OCCc1ccccc1 (stereo not shown) [Material 766]
  Log of liquid dish neat product liquid-air partition coefficient (Comment Code K/L): K (Log of liquid dish neat product liquid-air partition coefficient greater than or equal to −7)

## CC1CC=CCCCCCCCC(=O)OCC1 (stereo not shown) [Material 1099]
  Log of liquid dish neat product liquid-air partition coefficient (Comment Code K/L): K (Log of liquid dish neat product liquid-air partition coefficient greater than or equal to −7)

## CC(C)=CCC=C(C)C1CC=C(C)CC1 (stereo not shown) [Material 719]
  Log of liquid dish neat product liquid-air partition coefficient (Comment Code K/L): K (Log of liquid dish neat product liquid-air partition coefficient greater than or equal to −7)

## C=CC1(C)CCC(C(C)(C)O)CC1C(=C)C (stereo not shown) [Material 414]
[1]
  Log of liquid dish neat product liquid-air partition coefficient (Comment Code K/L): K (Log of liquid dish neat product liquid-air partition coefficient greater than or equal to −7)

## C=CC1(C)Cc2occ(C)c2CC1C(=C)C (stereo not shown) [Material 488]
[1]
  Log of liquid dish neat product liquid-air partition coefficient (Comment Code K/L): K (Log of liquid dish neat product liquid-air partition coefficient greater than or equal to −7)
  Comment Code: Log of liquid dish neat product liquid-air partition coefficient: K (Log of liquid dish neat product liquid-air partition coefficient greater than or equal to −7)

## CCC=CCC=CC=CC(=O)OCC [Material 1000]
  Log of liquid dish neat product liquid-air partition coefficient (Comment Code K/L): K (Log of liquid dish neat product liquid-air partition coefficient greater than or equal to −7)

## CC(C)Cc1ccc2ccccc2n1 [Material 849]
  Log of liquid dish neat product liquid-air partition coefficient (Comment Code K/L): K (Log of liquid dish neat product liquid-air partition coefficient greater than or equal to −7)

## CCC(=O)OC1CC2C3C=CCC3C1C2(C)C (stereo not shown) [Material 343]
[1]
  Log of liquid dish neat product liquid-air partition coefficient (Comment Code K/L): K (Log of liquid dish neat product liquid-air partition coefficient greater than or equal to −7)
  Comment Code: Log of liquid dish neat product liquid-air partition coefficient: K (Log of liquid dish neat product liquid-air partition coefficient greater than or equal to −7)
